Measured values: patent publication US8188078B2 (Sanofi-Aventis, priority 2007, dated 2012)

What was measured:
MKN45 cells = assay: Test D: cellular proliferation by 14C-thymidine pulse, MKN45 cells; format: cell-based; details: Homo sapiens, MKN-45, cellular proliferation by 14C-thymidine pulse; cell line not stated (HCT116 or MKN45)
Description: D) Measurement of Cellular Proliferation by 14C-Thymidine Pulse
The cells are sown in Cytostar 96-well plates under 180 μl for 4 hours at 37° C. and 5% CO2: The HCT116 cells at a rate of 2500 cells per well in DMEM medium+10% foetal calf serum+1% of L-glutamine and the MKN45 cells at a rate of 7500 cells per well in RPMI medium+10% foetal calf serum+1% of L-glutamine. After said incubation for 4 hours, the products are added under 10 μl in 20-times concentrated solution according to the method of dilution stated for ELISA. The products are tested at 10 concentrations in duplicate from 10000 nM to 0.3 nM in steps of 3.
After treatment for 72 h, add 10 μl of 14C-thymidine at 10 μCi/ml to obtain 0.1 μCi per well. The incorporation of 14C-thymidine is measured on a Micro-Beta (Perkin-Elmer) after 24 hours of pulse and 96 h of treatment.
All the stages of the test are automated on the BIOMEK 2000 or TECAN stations.

c-MET = target: T1, c-MET (Homo sapiens, UniProt P08581); assay: Test A: HTRF Met test in 96-well format; format: biochemical
T1 construct: The recombinant DNA His-Tev-MET (956-1390) in pFastBac(Invitrogen); His (N, cleaved yes); Tev (TEV protease site) (N, cleaved yes); made in house; host or cells: SF21 insect cells (baculovirus, pFastBac)
T1 sequence (P08581 956-1390): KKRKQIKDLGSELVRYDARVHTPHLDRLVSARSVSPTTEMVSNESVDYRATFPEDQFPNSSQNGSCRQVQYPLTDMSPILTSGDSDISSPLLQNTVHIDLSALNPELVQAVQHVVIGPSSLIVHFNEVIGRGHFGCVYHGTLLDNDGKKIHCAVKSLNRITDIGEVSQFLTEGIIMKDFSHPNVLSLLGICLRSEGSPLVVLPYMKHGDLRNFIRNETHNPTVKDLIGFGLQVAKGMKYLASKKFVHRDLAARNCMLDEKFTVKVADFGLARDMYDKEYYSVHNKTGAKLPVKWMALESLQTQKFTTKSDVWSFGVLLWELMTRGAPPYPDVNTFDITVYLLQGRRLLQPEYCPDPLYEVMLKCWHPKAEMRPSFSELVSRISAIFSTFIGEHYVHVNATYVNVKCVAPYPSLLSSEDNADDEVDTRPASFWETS
Description: I) Expression and Purification of MET, Cytoplasmic Domain
The recombinant DNA His-Tev-MET (956-1390) in pFastBac(Invitrogen) is transfected in insect cells and after several stages of viral amplification, the final stock of baculovirus is tested for expression of the protein of interest.
After infection for 72 h at 27° C. with the recombinant virus, the SF21 cell cultures are harvested by centrifugation and the cellular deposits are stored at −80° C.
The cellular deposits are resuspended in the lysis buffer (buffer A [50 mM HEPES, pH 7.5, 250 mM NaCl, Glycerol 10%, TECP 1 mM]; +cocktail of protease inhibitors Roche Diagnostics without EDTA, ref 1873580), stirred at 4° C. until homogeneous, then lysed mechanically using apparatus of the “Dounce” type.
After centrifugation, the lysis supernatant is incubated for 2 h at 4° C. with Nickel Chelate resin (His-Trap 6 Fast Flow™, GE HealthCare). After washing with 20 volumes of Tp A, the suspension is packed in a column, and the proteins are eluted with a gradient of buffer B ([…]+290 mM imidazole).
The fractions containing the protein of interest with a view to electrophoretic analysis (SDS PAGE) are collected, concentrated by ultrafiltration (cut-off 10 kDa) and injected in an exclusion chromatography column (Superdex™ 200, GE HealthCare) equilibrated with buffer A.
After enzymatic cleavage of the tag Histidine, the protein is reinjected in a new IMAC Nickel Chelate chromatography column (His-Trap 6 Fast Flow™, GE HealthCare) equilibrated with Buffer A. The fractions eluted with a gradient of buffer B and containing the protein of interest after electrophoresis (SDS PAGE), are finally collected and stored at −80° C.
For the production of autophosphorylated protein, the preceding fractions are incubated for 1 h at room temperature after adding ATP 2 mM, MgCl2 2 mM, and Na3VO4 4 mM. After stopping the reaction with 5 mM of EDTA, the reaction mixture is injected in a HiPrep desalting column (GE HealthCare) equilibrated beforehand with buffer A+Na3VO4 4 mM; the fractions containing the protein of interest (SDS PAGE analysis) are collected and stored at −80° C. The degree of phosphorylation is verified by mass spectrometry (LC-MS), and by peptide mapping.
A) HTRF Met test in 96-well format
In a final volume of 50 μl of enzymatic reaction mixture, final c-MET 5 nM is incubated in the presence of the molecule to be tested (for a final concentration range from 0.17 nM to 10 μM, final DMSO 3%) in buffer MOPS 10 mM pH 7.4, DTT 1 mM, Tween 20 0.01%. The reaction is initiated by the substrate solution to obtain the final concentrations of poly-(GAT) 1 μg/ml, ATP 10 μM and MgCl2 5 mM. After incubation for 10 min at room temperature, the reaction is stopped with a mix of 30 μl to obtain a final solution of Hepes 50 mM pH 7.5, potassium fluoride 500 mM, BSA 0.1% and EDTA 133 mM in the presence of 80 ng Streptavidin 61SAXLB Cis-Bio Int. and 18 ng anti-phosphotyrosine Mab PT66-Europium Cryptate per well. After 2 hours of incubation at room temperature, reading is carried out at 2 wavelengths 620 nm and 665 nm in a reader for the TRACE/HTRF technique and the percentage inhibition is calculated according to the 665/620 ratios.

RON = RON (Homo sapiens, UniProt Q04912); assay: Test B: HTRF RON test in 96-well format; format: biochemical
Sequence of RON (Q04912 25-1400): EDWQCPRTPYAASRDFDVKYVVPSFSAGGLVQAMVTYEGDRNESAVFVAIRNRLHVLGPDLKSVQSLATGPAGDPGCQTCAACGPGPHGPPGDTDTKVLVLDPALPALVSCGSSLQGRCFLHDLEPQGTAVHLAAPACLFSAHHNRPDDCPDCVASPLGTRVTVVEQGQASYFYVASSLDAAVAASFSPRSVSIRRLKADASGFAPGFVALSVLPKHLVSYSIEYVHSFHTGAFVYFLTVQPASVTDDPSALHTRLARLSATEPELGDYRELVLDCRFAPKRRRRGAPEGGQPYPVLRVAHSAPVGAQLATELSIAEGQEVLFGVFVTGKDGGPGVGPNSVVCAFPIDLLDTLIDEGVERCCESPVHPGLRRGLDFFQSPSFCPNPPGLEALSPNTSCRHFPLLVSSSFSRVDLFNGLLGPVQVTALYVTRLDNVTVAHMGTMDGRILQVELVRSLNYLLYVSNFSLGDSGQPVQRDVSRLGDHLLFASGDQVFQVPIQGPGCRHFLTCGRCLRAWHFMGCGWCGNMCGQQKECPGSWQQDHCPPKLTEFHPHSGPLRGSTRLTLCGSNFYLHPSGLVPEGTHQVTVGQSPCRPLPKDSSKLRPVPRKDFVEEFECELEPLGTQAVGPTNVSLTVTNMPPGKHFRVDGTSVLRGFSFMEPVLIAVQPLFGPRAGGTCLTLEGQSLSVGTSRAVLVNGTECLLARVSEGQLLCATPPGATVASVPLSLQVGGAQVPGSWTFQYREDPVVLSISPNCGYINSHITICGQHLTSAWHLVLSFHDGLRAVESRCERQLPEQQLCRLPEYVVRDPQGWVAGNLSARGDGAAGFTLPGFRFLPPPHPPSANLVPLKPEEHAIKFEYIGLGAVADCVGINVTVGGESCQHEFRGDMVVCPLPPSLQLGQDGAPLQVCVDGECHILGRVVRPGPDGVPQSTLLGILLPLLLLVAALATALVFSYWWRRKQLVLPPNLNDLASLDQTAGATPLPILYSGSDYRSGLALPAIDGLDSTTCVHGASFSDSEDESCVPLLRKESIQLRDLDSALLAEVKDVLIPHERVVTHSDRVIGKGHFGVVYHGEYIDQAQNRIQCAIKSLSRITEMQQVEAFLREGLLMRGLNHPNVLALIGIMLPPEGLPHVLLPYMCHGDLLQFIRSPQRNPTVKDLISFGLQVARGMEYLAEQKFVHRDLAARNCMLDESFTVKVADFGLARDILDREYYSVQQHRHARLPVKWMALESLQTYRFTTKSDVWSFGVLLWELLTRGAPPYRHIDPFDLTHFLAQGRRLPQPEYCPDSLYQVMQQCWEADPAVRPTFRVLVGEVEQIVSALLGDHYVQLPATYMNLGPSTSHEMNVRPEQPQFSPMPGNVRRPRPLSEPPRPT
Description: B) HTRF RON Test in 96-Well Format
The inhibitory potency (IC50) of molecules on the enzymatic activity of kinase phosphorylation RON is determined by the HTRF technique. The activity of the kinase is evaluated by measuring the phosphorylation of the substrate polyGAT by the enzyme, in the presence of ATP.
Final RON 5 nM is incubated in the presence of the molecule to be tested (for a final concentration range from 0.17 nM to 10 μM, final DMSO 3%) in buffer MOPS 10 mM pH 7, DTT 1 mM, Tween 20 0.01%. This pre-incubation is performed in 96 half-well black plates in a volume of 35 μl for 30 minutes at room temperature.
The reaction is initiated by adding 15 μl of a mixture of substrates constituted of biotinylated poly-(GAT) 1 μg/ml final and ATP 10 μM final in the presence of MgCl2 5 mM final for a final volume of 50 μl.
After incubation for 30 min at room temperature, the reaction is stopped with 30 μl of a mixture of Hepes 100 mM final pH 7, potassium fluoride 400 mM final, BSA 0.1% and EDTA 133 mM in the presence of 80 ng per well of antibodies Streptavidin ITS-XL665 Cis-Bio Int. and 18 ng per well of anti-phosphotyrosine PT66 labelled with europium cryptate.
After incubation for 2 hours at room temperature, reading is carried out at 2 wavelengths 620 nm and 665 nm in a Genios TECAN reader for the TRACE/HTRF technique and the percentage inhibition is calculated according to the 665/620 ratios.

Row | SMILES | IC50 (MKN45 cells) | IC50 (c-MET) | melting point | IC50 (RON)
1 | O=C(NCCCN1CCOCC1)Nc1nc2ccc(OCc3c(Cl)cccc3Cl)cc2s1 [Example 11, 1-{6-[(2,6-dichlorobenzyl)oxy]-1,3-benzothiazol-2-yl}-3-(3-morpholin-4-ylpropyl)urea] | > 10 µM | < 0.1 µM | 162 to 166 °C | 0.5 to 10 µM
2 | O=C(NCCN1CCOCC1)Nc1nc2ccc(OCc3c(F)cccc3F)cc2s1 [Example 13, 1-{6-[(2,6-difluorobenzyl)oxy]-1,3-benzothiazol-2-yl}-3-(2-morpholin-4-ylethyl)urea] | > 10 µM | < 0.1 µM | 219 °C | 0.5 to 10 µM
3 | CC(Oc1cc2sc(N)nc2cc1F)c1c(Cl)ccc(F)c1Cl (centres unmarked) [Example 30, 6-[1-(2,6-dichloro-3-fluorophenyl)ethoxy]-5-fluoro-1,3-benzothiazol-2-amine] | > 10 µM | < 0.1 µM | 223 °C | 0.5 to 10 µM
4 | CC(Oc1ccc2nc(NC(=O)NCCN3CCOCC3)sc2c1)c1cc(F)cc(F)c1 (centres unmarked) [Example 62, 1-{6-[1-(3,5-difluorophenyl)ethoxy]-1,3-benzothiazol-2-yl}-3-(2-morpholin-4-ylethyl)urea] | > 10 µM | 0.1 to 10 µM | 179 °C | 0.5 to 10 µM

More lines, now with the values ahead:

Row | IC50 (MKN45 cells) | IC50 (c-MET) | melting point | IC50 (RON) | SMILES
5 | > 10 µM | < 0.1 µM | 256 to 259 °C | 0.5 to 10 µM | O=C(NCCN1CCOCC1)Nc1nc2ccc(OCc3c(Cl)cccc3Cl)cc2[nH]1 [Example 1, 1-{6-[(2,6-dichlorobenzyl)oxy]-1H-benzimidazol-2-yl}-3-(2-morpholin-4-ylethyl)urea]
6 | > 10 µM | 0.1 to 10 µM | 161 °C | 0.5 to 10 µM | CC(Oc1ccc2nc(NC(=O)NCCN3CCOCC3)sc2c1)c1ccccc1 (centres unmarked) [Example 14, 1-(2-morpholin-4-ylethyl)-3-[6-(1-phenylethoxy)-1,3-benzothiazol-2-yl]urea]
7 | 0.5 to 10 µM | < 0.1 µM | 210 °C | 0.5 to 10 µM | O=C(NCCN1CCOCC1)Nc1nc2ccc(OCc3c(F)cccc3Cl)cc2s1 [Example 15, 1-{6-[(2-chloro-6-fluorobenzyl)oxy]-1,3-benzothiazol-2-yl}-3-(2-morpholin-4-ylethyl)urea]
8 | 0.5 to 10 µM | < 0.1 µM | 186 to 195 °C | 0.5 to 10 µM | CC(Oc1cc2sc(NC(=O)NCCN3CCCCC3)nc2cc1F)c1c(Cl)ccc(F)c1Cl (centres unmarked) [Example 80, 1-{6-[1-(2,6-dichloro-3-fluorophenyl)ethoxy]-5-fluoro-1,3-benzothiazol-2-yl}-3-[2-(piperidin-1-yl)ethyl]urea]
